Entries after “also recorded” stand apart in the source; their conditions may differ. Counter-ions that a name gives are not always drawn.
Experiments:
[1] = design: species or system LEW rats; settings: rat, in vivo, ip
Protocol: Serum bilirubin levels and BVR expression in the graft. To assess how fast injected biliverdin (BV) is metabolized into bilirubin, sequential serum bilirubin levels were analyzed. Before BV treatment, serum bilirubin levels were undetectable. Thirty minutes after BV injection i.p., serum bilirubin levels reached a peak of 1.07±0.5 mg/dl compared to those of normal animals. By 2 hours after injection i.p., bilirubin levels returned to normal.

[2] = system: MnSOD; experiment: Real time RT-PCR of graft muscularis after SITx, MnSOD; type: in vivo, LEW rats; settings: BV treatment
Protocol: Small Intestinal Transplantation. Orthotopic small intestinal transplantation (SITx) was performed in syngeneic Lewis rats. SITx with caval drainage was performed using a previously described procedure (Murase et al., in Handbook of Animal Models in Transplantation Research, Cramer et al., Eds. CRC Press, Boca Raton, Fla., pp. 203-213 (1994)). […] The graft was perfused via the aortic segment with 5 ml chilled Ringer's lactate solution, and the intestinal lumen was irrigated with 20 ml of cold saline solution containing 0.5% neomycin-sulfate (Sigma, St. Louis, Mo.). […]
(§1) SYBR green real time RT-PCR. The effects of administration of biliverdin on transplant-induced pro-inflammatory and anti-inflammatory gene expression were assessed in muscularis extracts by RT-PCR Biliverdin ([…], i.p.) was administered to both the donor and recipient three hours preoperatively. […] Equal aliquots (5 μg) of total RNA from each sample were quantified by spectrophotometry (wavelength […]) and aliquoted at a concentration of 40 ng/μl. Peak mRNA expression was quantified in duplicate by SYBR Green two-step, real-time RT-PCR. […] Real-time PCR data were plotted as the ΔRn fluorescence signal versus the cycle number. […] Quantification of mRNA expression was normalized to GAPDH and calculated relative to control using the comparative CT method (Schmittgen et al., J. Biochem. Biophys. Methods 46(1-2):69-8, 2000). […]

[3] = system: jejunal circular muscle strips; experiment: Jejunal circular muscle contractility after small intestinal transplantation (organ bath); type: in vivo, LEW rats
Protocol: (§2) Small Intestinal Transplantation. Orthotopic small intestinal transplantation (SITx) was performed in syngeneic Lewis rats. SITx with caval drainage was performed using a previously described procedure (Murase et al., in Handbook of Animal Models in Transplantation Research, Cramer et al., Eds. CRC Press, Boca Raton, Fla., pp. 203-213 (1994)). […] The graft was perfused via the aortic segment with 5 ml chilled Ringer's lactate solution, and the intestinal lumen was irrigated with 20 ml of cold saline solution containing 0.5% neomycin-sulfate (Sigma, St. Louis, Mo.). End-to-side anastomoses between the graft aorta and the recipient infrarenal aorta, and between the graft portal vein and recipient vena cava, were performed with 10-0 Novafil™ suture. The cold ischemic time was 1 hour. The entire recipient intestine was removed and the enteric continuity was restored by proximal and distal end-to-end intestinal anastomoses. Recipient animals were given 20 mg/day prophylactic cefamandole nafate for 3 postoperative days. Transplanted recipients were given water 3 hours after surgery, and were fed 24 hours after surgery.
Motility Studies. The effect of administration of biliverdin on treatment on intestinal dysmotility in transplanted grafts was assessed both in vitro and in vivo. […] In vitro circular muscle mechanical activity was measured as previously described (Eskandari et al., Am. J. Physiol. 273(3 Pt 1):G727-34, 1997). Rats were anesthetized and killed by exsanguination 24 hours post-operatively. A segment of mid-jejunum was pinned in a Sylgaard™ lined dissecting dish containing pre-oxygenated Krebs-Ringer-bicarbonate buffer (KRB; in mM: 137.4 Na^+, 5.9 K^+, 2.5 Ca^2+, 1.2 Mg^2+, 134 Cl^−, 15.5 HCO3^−, 1.2 H2PO4^−, and 11.5 glucose) that was equilibrated with 97% O2/3% CO2. […] Contractile activity was calculated by integrating the area under the trace, normalized by converting the weight and length of the strip to square millimeters of tissue (1.03 mg/mm^2), and reported as g/s/mm^2. […]

[4] = system: IL-6; experiment: Real time RT-PCR of graft muscularis after SITx, IL-6; type: in vivo, LEW rats
Protocol: as §2
as §1, with “preoperatively. The muscularis externae was collected from normal intestine and transplanted grafts 4 hours postoperatively and snap frozen in liquid nitrogen.” for “preoperatively.”

Question: With C=CC1=C(C)/C(=C/C2=NC(=C\c3[nH]c(/C=C4\NC(=O)C(C)=C4C=C)c(C)c3CCC(=O)O)/C(CCC(=O)O)=C2C)NC1=O [biliverdin, biliverdin dihydrochloride] as the compound, how does the “peak serum bilirubin level” value ([1]; LEW) read?
Answer: 1.07 ± 0.5 mg/dL

Question: What about the “time for bilirubin levels to return to normal” value ([1]; LEW) of the same compound?
Answer: ≤ 2 h

Question: What about the “time to peak serum bilirubin” value [1] of the same compound?
Answer: Thirty

Question: What about the “MnSOD expression in the graft” value [2] of the same compound?
Answer: significantly reduced

Question: And the “spontaneous muscle contractile activity” value ([3]; control (unoperated) animals treated with BV)?
Answer: no change

Question: What about the spontaneous contractile activity ([3]; grafts in recipients treated with BV, compared to untreated transplants, 24 hours) of the same compound?
Answer: significantly greater

Question: What about the bethanechol-stimulated muscle contractility ([3]; transplanted animals treated with BV versus untreated graft muscles, 24 hours, listed as BV, dihydrochloride) of the same compound?
Answer: significantly improved; also recorded: Significant improvement

Question: And the “reduction of IL-6 mRNA expression” value ([4]; BV 50 mmol/kg i.p. donor and recipient, 4 hours, versus saline-treated graft)?
Answer: 24%

Question: And the “basal mRNA expression of any of the cytokines” value ([4]; BV treatment of unoperated animals)?
Answer: did not alter

— patent US8097585B2, “Methods of treating inflammation by administration of heme oxygenase-1 and products of heme degradation” (priority 2002, dated 2012)
